Test results as given in BindingDB's records for doi:10.1016/s0960-894x(01)00758-2 (University of St. Andrews, 2002).
pKi: −log10 of the molar value.

Experiment: Tested for binding affinity against kynureninase enzyme from bacterial cells

pKi: 5.00
Structure (SMILES): NC(CC(O)c1cccc(O)c1)C(=O)O (stereo unspecified) [2-amino-4-[3'-hydroxyphenyl]-4-hydroxybutanoic acid]
